Values of other authors as cited in patent US20060193883A1, “Pesticidal treatment materials” (priority 1999, published 2006).

System: house dust mite populations
Settings: in vivo

Row | Compound | effectiveness as long-term acaricides against house dust mite populations
1 | CC1(C)[C@H](C(=O)O[C@H](C#N)c2cccc(Oc3ccccc3)c2)[C@@H]1C=C(Br)Br [deltamethrin] | highly effective
2 | CC1(C)C(C=C(Cl)Cl)C1C(=O)OCc1cccc(Oc2ccccc2)c1 (centres unmarked) [permethrin] | highly effective
